Converted amounts (≈) assume the structure as drawn.

Results on 2 molecules are retold here after patent US10906901B2, “Crystal form and salt form of N-phenyl-2-aminopyrimidine compound, and preparation method therefor” (HAINAN YUEKANG BIOMEDICINES CO., LTD., priority 2017, dated 2021).

A short description of data set [1]: Bioavailability assay, single oral dose of capsules in Beagle dogs. The conditions noted are these: single oral dose 3 mg/kg, crystalline powders in capsules.
Data set [2] in a line: Dynamic Vapor Sorption (DVS). Type of data set: physicochemical.
Data set [3] in a line: Accelerated stability test. It counts as physicochemical.
Another data set deals with EGFR (Homo sapiens, UniProt P00533). The conditions noted are these: described in Chinese Patent Application 201610679161.7; cited from earlier work.
Data set [4] relates to cells with single or double EGFR mutations. Conditions: described in Chinese Patent Application 201610679161.7; cited from earlier work.
The next data set can be described thus: physchem. Conditions: thermodynamic from solid.

Chain of EGFR (P00533 25-1210): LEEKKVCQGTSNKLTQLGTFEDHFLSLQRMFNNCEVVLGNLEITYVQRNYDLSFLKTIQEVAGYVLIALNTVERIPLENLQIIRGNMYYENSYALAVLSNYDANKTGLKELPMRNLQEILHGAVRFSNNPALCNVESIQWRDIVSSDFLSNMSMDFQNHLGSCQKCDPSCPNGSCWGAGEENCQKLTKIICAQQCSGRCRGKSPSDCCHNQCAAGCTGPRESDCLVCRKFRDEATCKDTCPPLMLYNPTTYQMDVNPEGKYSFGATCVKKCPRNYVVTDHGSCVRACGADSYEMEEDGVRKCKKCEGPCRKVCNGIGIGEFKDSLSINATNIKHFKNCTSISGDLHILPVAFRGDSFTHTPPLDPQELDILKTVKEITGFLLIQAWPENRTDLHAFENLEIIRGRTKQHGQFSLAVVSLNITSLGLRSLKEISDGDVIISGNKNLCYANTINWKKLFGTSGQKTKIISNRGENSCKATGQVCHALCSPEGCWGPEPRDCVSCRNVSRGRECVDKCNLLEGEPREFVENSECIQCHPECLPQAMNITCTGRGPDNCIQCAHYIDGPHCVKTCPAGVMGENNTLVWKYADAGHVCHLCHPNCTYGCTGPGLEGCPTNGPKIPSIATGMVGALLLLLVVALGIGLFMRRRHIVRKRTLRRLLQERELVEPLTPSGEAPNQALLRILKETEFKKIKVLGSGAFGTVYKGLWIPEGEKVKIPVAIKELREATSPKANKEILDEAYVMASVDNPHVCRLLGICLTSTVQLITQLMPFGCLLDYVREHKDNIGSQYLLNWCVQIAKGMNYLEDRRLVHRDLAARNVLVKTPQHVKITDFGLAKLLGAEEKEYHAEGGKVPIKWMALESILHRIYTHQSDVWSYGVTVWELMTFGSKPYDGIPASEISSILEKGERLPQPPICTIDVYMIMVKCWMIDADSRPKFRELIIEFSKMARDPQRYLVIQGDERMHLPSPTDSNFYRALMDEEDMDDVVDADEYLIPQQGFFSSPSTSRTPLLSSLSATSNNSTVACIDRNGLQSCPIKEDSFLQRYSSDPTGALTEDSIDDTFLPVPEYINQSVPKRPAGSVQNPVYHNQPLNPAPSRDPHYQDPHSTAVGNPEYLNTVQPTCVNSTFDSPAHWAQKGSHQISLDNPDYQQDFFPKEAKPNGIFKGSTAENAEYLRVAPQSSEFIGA
Procedure for physchem: Subsequently, 2 mL of buffer solutions at pH 1.2 and 6.8 were added respectively to prepare a saturated solution. The above resulting suspensions were placed in a shaker and shaken at a speed of 200 rpm for 2 hours at 25° C. The resulting mixtures were filtered, and the filtrates were diluted by an appropriate multiple and analyzed by HPLC to determine the solubility of each sample in different media.

With Benzoate, in data set [1], the “AUC(0-t)” value was determined as 856.41 ng·h/mL, the maximum concentration (Cmax) came to 203.15 ng/mL and the “peak time Tmax” value is listed as 2 h.
As to `C=CC(=O)Nc1cc(Nc2nccc(-c3cnc4c(C)cccn34)n2)c(OC)cc1N(C)CCN(C)C` [Compound 1, N-(2-methoxy-4-(N^1,N^2,N^2-trimethyl-1,2-ethylenediamine-1-yl)-5-acrylamidephenyl)-4-(8-methylimidazo[1,2-a]pyridin-3-yl)pyrimidin-2-amine], in data set [2] (DVS curve at 25° C.), the hygroscopicity entry is listed as “almost no hygroscopicity”. Moreover, in data set [2] (at 80% RH), the moisture absorption is 0.934%. Moreover, in data set [3], the “crystal structure after the accelerated stability test” value is reported as “does not change”. Moreover, the chemical stability result in data set [3] (when avoiding the light) is on record as “good chemical stability”. On EGFR, the “inhibitory activity against EGFR” value is “significant inhibitory activity” and the “selectivity to EGFR mutants” value is “high selectivity”. Further, in data set [4], the “inhibitory activity on cells with single or double EGFR mutations” value was “strong inhibitory activity”. The molecule also yielded a solubility at 2 h in “physchem” (buffer solution pH 1.2, 25 °C, pH 1.2, simulated gastric fluid) of 38.1 mg/mL (≈ 76.1 mM). Further, in “physchem” (buffer solution pH 6.8, 25 °C, pH 6.8, aqueous buffer), the solubility at 2 h came out at 6.75 mg/mL (≈ 13.5 mM).

One may read the AUC(0-t) as exposure summed from dosing to a finite time, without extrapolation to infinity. Read a high AUC(0-t) as more exposure. One may read the Cmax as the peak of the concentration-time curve. By solubility is commonly meant the concentration that dissolves in the medium under given conditions. Read a high solubility as a readily soluble substance.
